Results from publication PMC6199744, “Development of Chemical Proteomics for the Folateome and Analysis of the Kinetoplastid Folateome” (ACS Infectious Diseases, 2018).
Read-outs that look alike come from different tables or passages of the source.

Key:
Type in all cases: binding
[1] = biological target: T1, HeLa cell extract proteins (Homo sapiens, UniProt Q9Y5A9); settings: captured protein YTHDF2; HeLa
T1 construct: endogenous in cells; host or cells: HeLa cell extract
T1 sequence (Q9Y5A9 1-579): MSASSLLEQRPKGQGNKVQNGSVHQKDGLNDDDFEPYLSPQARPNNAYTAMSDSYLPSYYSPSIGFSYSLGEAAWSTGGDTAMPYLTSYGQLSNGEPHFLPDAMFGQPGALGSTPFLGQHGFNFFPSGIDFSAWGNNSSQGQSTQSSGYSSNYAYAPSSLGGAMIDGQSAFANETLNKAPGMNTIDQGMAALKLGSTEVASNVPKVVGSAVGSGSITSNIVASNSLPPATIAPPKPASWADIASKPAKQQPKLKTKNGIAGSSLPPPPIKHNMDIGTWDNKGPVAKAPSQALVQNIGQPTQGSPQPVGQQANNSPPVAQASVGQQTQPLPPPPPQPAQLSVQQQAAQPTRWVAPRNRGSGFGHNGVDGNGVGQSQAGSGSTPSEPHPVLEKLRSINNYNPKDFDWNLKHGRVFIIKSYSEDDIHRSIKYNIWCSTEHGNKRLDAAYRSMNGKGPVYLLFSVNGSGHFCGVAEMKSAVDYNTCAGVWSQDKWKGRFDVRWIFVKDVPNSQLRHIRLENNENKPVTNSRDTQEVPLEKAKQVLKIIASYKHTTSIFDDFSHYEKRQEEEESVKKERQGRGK

[2] = biological target: T2, HeLa cell extract proteins (Homo sapiens, UniProt Q9UGJ1); settings: HeLa; protein TUBGCP4
T2 construct: endogenous in cells; host or cells: HeLa cell extract
T2 sequence (Q9UGJ1 whole entry): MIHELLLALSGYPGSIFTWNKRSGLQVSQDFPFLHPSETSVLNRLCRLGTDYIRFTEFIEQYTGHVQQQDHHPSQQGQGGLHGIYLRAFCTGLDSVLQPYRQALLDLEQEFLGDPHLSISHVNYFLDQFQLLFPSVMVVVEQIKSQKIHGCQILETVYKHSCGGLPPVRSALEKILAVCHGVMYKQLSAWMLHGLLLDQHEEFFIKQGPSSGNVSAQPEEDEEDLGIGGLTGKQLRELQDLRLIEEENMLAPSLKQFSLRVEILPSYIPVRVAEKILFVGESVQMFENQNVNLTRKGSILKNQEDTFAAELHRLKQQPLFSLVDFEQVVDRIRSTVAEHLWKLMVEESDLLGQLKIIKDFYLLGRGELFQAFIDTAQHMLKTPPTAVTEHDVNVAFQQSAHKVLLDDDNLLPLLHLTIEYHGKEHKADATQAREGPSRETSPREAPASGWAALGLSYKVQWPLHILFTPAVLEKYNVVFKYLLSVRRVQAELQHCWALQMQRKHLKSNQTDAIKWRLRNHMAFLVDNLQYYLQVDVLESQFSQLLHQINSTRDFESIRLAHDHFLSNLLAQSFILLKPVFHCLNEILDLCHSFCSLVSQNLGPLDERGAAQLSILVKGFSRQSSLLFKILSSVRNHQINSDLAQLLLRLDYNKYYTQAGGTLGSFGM

[3] = biological target: T3, HeLa cell extract proteins (Homo sapiens, UniProt P36957); settings: protein DLST; HeLa
T3 construct: endogenous in cells; host or cells: HeLa cell extract
T3 sequence (P36957 68-453): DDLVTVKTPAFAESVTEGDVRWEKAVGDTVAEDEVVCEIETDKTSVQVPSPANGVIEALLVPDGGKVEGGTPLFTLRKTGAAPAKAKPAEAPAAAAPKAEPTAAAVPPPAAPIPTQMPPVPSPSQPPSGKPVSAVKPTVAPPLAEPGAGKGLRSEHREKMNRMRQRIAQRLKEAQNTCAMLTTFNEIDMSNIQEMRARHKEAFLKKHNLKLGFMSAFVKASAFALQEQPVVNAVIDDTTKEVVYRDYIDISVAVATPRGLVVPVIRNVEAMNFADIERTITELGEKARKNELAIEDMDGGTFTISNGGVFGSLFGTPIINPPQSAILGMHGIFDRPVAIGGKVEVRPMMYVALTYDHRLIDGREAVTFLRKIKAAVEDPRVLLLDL

[4] = biological target: T4, HeLa cell extract proteins (Homo sapiens, UniProt P39687); settings: protein ANP32A; HeLa
T4 construct: endogenous in cells; host or cells: HeLa cell extract
T4 sequence (P39687 whole entry): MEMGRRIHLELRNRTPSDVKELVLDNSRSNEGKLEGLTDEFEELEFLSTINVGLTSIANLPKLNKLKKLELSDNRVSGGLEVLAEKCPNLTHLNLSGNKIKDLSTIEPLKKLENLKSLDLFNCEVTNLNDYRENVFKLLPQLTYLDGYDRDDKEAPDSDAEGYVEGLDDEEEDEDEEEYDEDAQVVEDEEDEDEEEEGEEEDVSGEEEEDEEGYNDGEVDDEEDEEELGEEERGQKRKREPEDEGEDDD

[5] = biological target: T5, HeLa cell extract proteins (Homo sapiens, UniProt Q9BWD1)
T5 construct: endogenous in cells; host or cells: HeLa cell extract
T5 sequence (Q9BWD1 whole entry): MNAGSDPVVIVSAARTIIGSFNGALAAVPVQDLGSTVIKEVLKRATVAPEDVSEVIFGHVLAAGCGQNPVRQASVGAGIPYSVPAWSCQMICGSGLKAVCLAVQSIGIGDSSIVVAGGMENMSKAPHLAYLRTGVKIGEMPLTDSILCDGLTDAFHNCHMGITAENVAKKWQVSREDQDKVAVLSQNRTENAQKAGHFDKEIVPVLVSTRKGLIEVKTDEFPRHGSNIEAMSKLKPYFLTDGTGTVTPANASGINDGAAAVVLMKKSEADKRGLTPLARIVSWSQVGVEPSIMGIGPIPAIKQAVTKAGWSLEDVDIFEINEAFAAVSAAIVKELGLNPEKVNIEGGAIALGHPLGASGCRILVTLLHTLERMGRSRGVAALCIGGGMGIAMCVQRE

[6] = biological target: T6, HeLa cell extract proteins (Homo sapiens, UniProt P63241)
T6 construct: endogenous in cells; host or cells: HeLa cell extract
T6 sequence (P63241 whole entry): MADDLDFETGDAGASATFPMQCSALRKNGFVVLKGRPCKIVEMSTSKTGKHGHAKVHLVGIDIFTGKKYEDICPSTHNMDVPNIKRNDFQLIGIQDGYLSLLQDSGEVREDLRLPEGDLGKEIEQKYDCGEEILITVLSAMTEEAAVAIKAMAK

[7] = biological target: T7, HeLa cell extract proteins (Homo sapiens, UniProt Q8NB46)
T7 construct: endogenous in cells; host or cells: HeLa cell extract
T7 sequence (Q8NB46 1-1076): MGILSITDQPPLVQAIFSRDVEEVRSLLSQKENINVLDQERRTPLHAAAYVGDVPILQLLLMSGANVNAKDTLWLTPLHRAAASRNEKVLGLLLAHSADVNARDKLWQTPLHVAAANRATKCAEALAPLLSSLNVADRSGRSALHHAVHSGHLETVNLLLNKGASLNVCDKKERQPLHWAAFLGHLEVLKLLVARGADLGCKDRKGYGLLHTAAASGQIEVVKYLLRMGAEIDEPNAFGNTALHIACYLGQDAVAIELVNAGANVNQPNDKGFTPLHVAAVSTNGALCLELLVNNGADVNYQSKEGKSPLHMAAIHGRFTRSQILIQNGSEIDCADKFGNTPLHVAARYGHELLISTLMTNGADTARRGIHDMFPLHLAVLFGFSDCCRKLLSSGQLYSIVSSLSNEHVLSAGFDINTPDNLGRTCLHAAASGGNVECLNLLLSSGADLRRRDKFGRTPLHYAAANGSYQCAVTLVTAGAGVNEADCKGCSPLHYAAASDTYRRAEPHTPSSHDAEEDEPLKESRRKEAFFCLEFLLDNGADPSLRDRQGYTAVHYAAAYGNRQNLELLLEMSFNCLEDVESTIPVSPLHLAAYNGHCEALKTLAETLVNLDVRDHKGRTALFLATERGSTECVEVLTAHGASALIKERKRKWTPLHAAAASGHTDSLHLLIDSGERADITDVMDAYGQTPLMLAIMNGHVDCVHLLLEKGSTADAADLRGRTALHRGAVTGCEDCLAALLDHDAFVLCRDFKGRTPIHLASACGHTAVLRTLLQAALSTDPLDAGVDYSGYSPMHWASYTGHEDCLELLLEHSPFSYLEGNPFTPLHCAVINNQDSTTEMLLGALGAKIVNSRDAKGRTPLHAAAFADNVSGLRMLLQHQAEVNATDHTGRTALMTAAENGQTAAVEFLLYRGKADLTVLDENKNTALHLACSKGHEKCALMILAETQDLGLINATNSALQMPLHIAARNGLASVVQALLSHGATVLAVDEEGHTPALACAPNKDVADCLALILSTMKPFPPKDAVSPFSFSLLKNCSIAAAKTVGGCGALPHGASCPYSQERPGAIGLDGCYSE

[8] = biological target: T8, HeLa cell extract proteins (Homo sapiens, UniProt P13804)
T8 construct: endogenous in cells; host or cells: HeLa cell extract
T8 sequence (P13804 20-333): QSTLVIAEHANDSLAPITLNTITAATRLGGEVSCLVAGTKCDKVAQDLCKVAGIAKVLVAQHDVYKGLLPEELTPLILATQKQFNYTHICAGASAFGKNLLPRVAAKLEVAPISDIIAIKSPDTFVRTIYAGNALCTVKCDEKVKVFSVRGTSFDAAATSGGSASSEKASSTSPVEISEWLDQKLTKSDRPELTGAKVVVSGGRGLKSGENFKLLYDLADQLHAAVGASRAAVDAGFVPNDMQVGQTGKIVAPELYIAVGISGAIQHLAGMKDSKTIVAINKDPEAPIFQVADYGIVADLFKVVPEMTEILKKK

[9] = biological target: T9, HeLa cell extract proteins (Homo sapiens, UniProt P62888)
T9 construct: endogenous in cells; host or cells: HeLa cell extract

Row | Compound | fold changes relative to vehicle control [1] | fold changes relative to vehicle control [2] | fold changes relative to vehicle control [3] | fold changes relative to vehicle control [4] | fold changes relative to vehicle control ([5]; HeLa, protein ACAT2) | fold changes relative to vehicle control ([6]; HeLa, captured protein EIF5A) | fold changes relative to vehicle control ([7]; HeLa, protein ANKRD52) | fold changes relative to vehicle control ([8]; protein ETFA, HeLa) | fold changes relative to vehicle control ([9]; protein RPL30, HeLa) | other results
1 | Nc1nc2cccc(-c3ccccc3)c2n1Cc1ccc(Cl)c(Cl)c1 [compound 3] | 1.01 | 1.02 | 1.17 | 0.78 |  |  |  |  |  | 
2 | NCCOCCOCC(=O)Nc1nc2ncc(CNc3ccc(C(=O)NC(CCC(=O)O)C(=O)O)cc3)nc2c(=O)[nH]1 (centres unmarked) [compound 6] |  |  |  |  | 1.17 | 1.61 | 1.06 | 0.9 | 1 | 
3 | Nc1nc2[nH]cc(CCc3ccc(C(=O)N[C@@H](CCC(=O)O)C(=O)O)cc3)c2c(=O)[nH]1 [PTX, pemetrexed] |  |  |  |  |  |  |  |  |  | fold changes relative to vehicle control [5]: 0.82; fold changes relative to vehicle control [6]: 1.32; fold changes relative to vehicle control [7]: 1.01; fold changes relative to vehicle control [8]: 0.73; fold changes relative to vehicle control [9]: 0.89
4 | Nc1nc2c(c(=O)[nH]1)N(C=O)C(CNc1ccc(C(=O)N[C@@H](CCC(=O)O)C(=O)O)cc1)CN2 (some centres unmarked) [LEU, leucovorin] |  |  |  |  | 1.06 | 1.12 | 0.89 | 0.77 | 0.86 | 
5 | CCCCCCOc1ccc(Cc2cnc(N)nc2N)cc1 [compound 1] | 0.79 | 0.85 | 1.31 | 1.44 |  |  |  |  |  | 
6 | NCCCNc1ccc(C(=O)NC(CCC(=O)O)C(=O)O)cc1 (centres unmarked) [compound 7] |  |  |  |  | 1.12 | 1.02 | 1.03 | 0.87 | 0.92 | 
7 | CCCCCCOc1cccc(Cc2cnc(N)nc2N)c1 [compound 2] | 1.16 | 1.07 | 1.34 | 2.37 |  |  |  |  |  | 
